Data: US9303062B2, “Solid oxidized glutathione salt and method for producing same” (priority 2011, dated 2016)

Columns and labels:
[1] = Deliquescency of powder at 25° C., normal pressure, 75% RH, observed with naked eyes; format: physicochemical; conditions: relative humidity 75% RH
Method: The solid oxidized glutathione salt obtained as described above has low deliquescency and high water solubility. The deliquescency of the solid oxidized glutathione can be evaluated by allowing a powder of the salt to stand in an environment at a temperature of 25° C., normal pressure, e.g. 1 atmospheric pressure, and a relative humidity of 75% RH, and observing whether deliquescence starts or not with naked eyes.
Each of the powders of the solid-state oxidized glutathione salt obtained in the above respective Examples was allowed to stand in atmospheric condition of a temperature of 25° C., normal pressure and a relative humidity of 75% RH. After 2 hours or 24 hours, it was determined whether or not deliquescence was is present by observing the occurrence of shape change with naked eyes. For comparison, the deliquescencies of the above commercially available solid oxidized glutathiones were investigated in the same manner.

[2] = Solubility in water at 25° C. under normal pressure; format: physicochemical; conditions: supernatant by HPLC
Method: The solubility of the solid oxidized glutathione salt of the present invention in water at temperature of 25° C. can be calculated according to the following formula, and the solubility is, for example, 10 mass % or more, preferably 20 mass % or more, and more preferably 30 mass % or more.
Solubility (%)=mass of dissolved oxidized glutathione/(mass of water+mass of dissolved oxidized glutathione)×100
Evaluation 1: Solubility in water at 25° C. under normal pressure and deliquescency of oxidized glutathione salt
Each of the powders of the solid-state oxidized glutathione salt obtained in the above respective Examples was dissolved in water until the powder was not further dissolved. After each slurry was stirred for 30 minutes or longer, the supernatant was obtained and the concentrations of each oxidized glutathione and salt were calculated using HPLC. For comparison, the solubilities of the following conventionally known solid oxidized glutathiones were investigated in the same manner as the above.

Row | Substance | Deliquescency 2 hours ([1]; after 2 hours) | Deliquescency 24 hours ([1]; after 24 hours) | Solubility [2] [mass %]
1 | oxidized glutathione hemicalcium salt [Example 6] | no | no | 58
2 | oxidized glutathione monoammonium salt [Example 2] | – | – | 34.8
